Results taken from PubChem BioAssay (NCI).
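Interpolation was linear, between the two tested concentrations surrounding the appropriate level; five concentrations were tested over 48 hours in 96-well plates. At the GI50, growth is halved. Definition used: TGI = concentration required for complete inhibition of growth.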

Key:
Test in all cases: DTP human tumour cell line panel, 48 h
A549 NSCLC = test system: A549 NSCLC
ACHN renal = test system: ACHN renal
DLD-1 colon = test system: DLD-1 colon
DMS 273 small cell lung = test system: DMS 273 small cell lung
KM12 colon = test system: KM12 colon
RXF 393 renal = test system: RXF 393 renal
SF-295 CNS = test system: SF-295 CNS
SN12C renal = test system: SN12C renal
BT-549 breast = test system: BT-549 breast
HS 578T breast = test system: HS 578T breast

SMILES	TGI (A549 NSCLC) [µM]	TGI (ACHN renal) [µM]	TGI (DLD-1 colon) [µM]	TGI (DMS 273 small cell lung) [µM]	TGI (KM12 colon) [µM]	TGI (RXF 393 renal) [µM]	TGI (SF-295 CNS) [µM]	TGI (SN12C renal) [µM]	TGI (BT-549 breast) [µM]	TGI (HS 578T breast) [µM]	GI50 (A549 NSCLC) [nM]	GI50 (ACHN renal) [nM]	GI50 (DLD-1 colon) [nM]	GI50 (DMS 273 small cell lung) [nM]	GI50 (KM12 colon) [nM]	GI50 (RXF 393 renal) [nM]	GI50 (SF-295 CNS) [nM]	GI50 (SN12C renal) [nM]
Cc1ccc(C)c(NC(=O)c2cc(-c3ccc([N+](=O)[O-])cc3)nc(N)n2)c1	> 100	> 100	> 100	> 100	> 100	> 100	> 100	> 100										
Cc1ccc(NC(=O)/C(CC(=O)c2c[n+](=O)c3ccccc3n2O)=N\NC(=O)C[n+]2ccccc2)cc1	> 100	> 100	> 100	> 100	> 100	> 100	> 100	> 100										
CC(c1ccc(Br)cc1)C(C(=O)O)C(=O)O (stereo unspecified)	> 100	> 100	> 100	> 100	> 100	> 100	> 100	> 100										
O=c1[nH]c(Br)nc2c(Br)c[nH]c12	> 100	> 100	> 100	> 100	> 100	> 100	> 100	> 100										
CC(=O)OC12c3ccccc3C1CCCCCC21OCCCO1 (stereo unspecified)	> 100	> 100	> 100	> 100	> 100	> 100	> 100	> 100										
O=Cc1ccc(-c2ccc(-c3ccc(C=O)s3)o2)s1	> 100	> 100	> 100	> 100	> 100	2.65	> 100	> 100	> 100									
O=C1C=C(Nc2ccccc2C(=O)CC(=O)C(=O)Nc2cccc(C(F)(F)F)c2)c2ccccc2C1=O	> 89.8	> 100	> 37.6	> 94.4	> 95.9	93.3	53.7	36.3	49.1	66.2								
Nc1ccc(Nc2nc(F)nc(-c3c4ccccc4c4n3CCS4)n2)cc1	31.2	25.3	34.8	24	26.5	43.3	33.7	33.4										
CCCNCc1nc2ccc(Br)cc2c(=O)n1CCC	35	29.6	21.7	25.2	29.3	29.1	30.6	26.7										
Cc1c(C(=O)/C=C/c2ccc(Cl)cc2)[n+](=O)c2ccccc2n1[O-]	33.6	29.6	20.4	25.4	22.7	17.9	27.1	23.3										
CC(=O)N1CC2Nc3ccccc3C2CC1CO (stereo unspecified)	> 100	> 100	> 100	> 100	> 100	> 100	> 100	> 100										
O=c1/c(=C/c2ccc(Cl)cc2Cl)sc2nc3ccccc3n12	> 100	> 100	> 100	> 100	> 100	> 100	> 100	> 100										
CCOC(=O)/N=C(\N)SCc1ccccc1	> 100	> 100	> 100	> 100	> 100	> 100	> 100	> 100										
Cc1cc(NS(=O)(=O)c2ccc(NC(=O)c3cccc4c(N)c5ccccc5nc34)cc2)no1	> 100	46.6	> 100	49	58.3	31.9	67.2	40.3										
CCC[CH2][Sn]([CH2]CCC)([O]C(=O)c1cccc(F)c1)[O]C(=O)c1cccc(F)c1	9.45	2.59	2.32	3.4	2.79	0.758	2.86	3.16			2890	1300	1110	1390	1290	185	1480	1290
